Assay results: patent US20220233743A1, “WOUND CLOSURE ENHANCEMENT METHODS AND MATERIALS VIA MANIPULATION OR AUGMENTATION OF LIPIN-1” (Board of Supervisors of Louisiana State University and …, priority 2019, published 2022)

Test system: BMDMs
Experiment: Central carbon analysis of IL-4 treated BMDMs
Assay type: cell-based, mouse
Conditions: 40 ng/ml IL-4 for 4 h
Method: BMDMs from lipin-1^mKO and littermate control mice were seeded at a density of 1×10^6/ml into Falcon tubes (60818-500; VWR). Cells were either treated with or without IL-4 (40 ng/ml) for 4 h. Cells were then collected and spun at 400×g for 5 min. Cell pellets were sent to Creative Proteomics (Shirley, N.Y.) for central carbon analysis.
Macrophages need to align individual metabolic pathways to effectively respond to stimuli. The inventors wanted to understand the consequences of lipin-1 activity on immunometabolic responses in macrophages after stimulation with IL-4. WT and lipin-1 KO macrophages were stimulated with and without 40 ng/ml IL-4 for 4 h. Cell pellets were then sent to Creative Proteomics for central carbon analysis to determine the abundance of metabolites in major metabolic pathways, such as glycolysis, TCA cycle, and PPP. At baseline, lipin-1-deficient macrophages have an altered metabolism compared with WT macrophages. Lipin-1 KO BMDMs have multiple elevated glycolytic metabolites compared with WT BMDMs (FIGS. 10 and 43). […] The inventors also see an increase in metabolites within the PPP (FIG. 10). Upregulation of the PPP can result in increased NADPH (FIG. 10).
The alterations in metabolism in lipin-1-deficient BMDMs at baseline were exacerbated upon stimulation with IL-4. […] The TCA cycle generates electron carriers (NADH) that are used by the electron transport chain to generate ATP as part of oxidative phosphorylation. […] Lipin-1-deficient macrophages have an increase in the initial metabolites of the PPP, 6P-gluconate. The conversion of glucose-6P to 6P-gluconate generates NADPH, which can be used in lipid synthetic pathways (FIG. 10). […] Complete central carbon analysis can be found is found below: […]

Substance: IL-4: cytokine IL-4 (R&D Biosystems, 404-ML-050) used to stimulate macrophages; optional component of the claimed composition
- 6P-Gluconate, Mean (KO (lipin-1mKO) BMDMs): 0.02073
- ADP, Mean (KO (lipin-1mKO) BMDMs): 0.6171
- ADP-Glucose, Mean (KO (lipin-1mKO) BMDMs): 0.0026
- AMP, Mean (KO (lipin-1mKO) BMDMs): 2.121
- ATP, Mean (KO (lipin-1mKO) BMDMs): 0.24
- Acetyl-CoA, Mean (KO (lipin-1mKO) BMDMs): 0.00588
- Acetyl-Phosphate, Mean (KO (lipin-1mKO) BMDMs): 0.4686
- Acetylglucosamine-1P, Mean (KO (lipin-1mKO) BMDMs): 0.1085
- Acetylglucosamine-6P, Mean (KO (lipin-1mKO) BMDMs): 0.4128
- Citrate, Mean (KO (lipin-1mKO) BMDMs): 17.69
- DHAP, Mean (KO (lipin-1mKO) BMDMs): 0.05052
- Erythrose-4P, Mean (KO (lipin-1mKO) BMDMs): 0.03703
- Fructose-1,6-bisP, Mean (KO (lipin-1mKO) BMDMs): 0.02422
- Fructose-1P, Mean (KO (lipin-1mKO) BMDMs): 0.00893
- Fructose-6P, Mean (KO (lipin-1mKO) BMDMs): 0.05762
- Fumarate, Mean (KO (lipin-1mKO) BMDMs): 15.48
- GDP, Mean (KO (lipin-1mKO) BMDMs): 0.1098
- GMP, Mean (KO (lipin-1mKO) BMDMs): 14.33
- GTP, Mean (KO (lipin-1mKO) BMDMs): 0.0303
- Glucosamine-6P, Mean (KO (lipin-1mKO) BMDMs): 0.03932
- Glucose, Mean (KO (lipin-1mKO) BMDMs): 70.05
- Glucose-1,6-bisP, Mean (KO (lipin-1mKO) BMDMs): 0.04135
- Glucose-1P, Mean (KO (lipin-1mKO) BMDMs): 0.03615
- Glucose-6P, Mean (KO (lipin-1mKO) BMDMs): 0.09843
- Glyceraldehyde-3P, Mean (KO (lipin-1mKO) BMDMs): 0.1128
- Glycerate-2,3P, Mean (KO (lipin-1mKO) BMDMs): 0.00052
- Glycerate-2P, Mean (KO (lipin-1mKO) BMDMs): 0.00902
- Glycerate-3P, Mean (KO (lipin-1mKO) BMDMs): 0.07625
- Glycerol-3P, Mean (KO (lipin-1mKO) BMDMs): 0.8631
- Glycolate, Mean (KO (lipin-1mKO) BMDMs): 20.92
- Hs-CoA, Mean (KO (lipin-1mKO) BMDMs): 0.0443
- Isocitrate, Mean (KO (lipin-1mKO) BMDMs): 0.2094
- Latate, Mean (KO (lipin-1mKO) BMDMs): 1872
- Malate, Mean (KO (lipin-1mKO) BMDMs): 73.43
- Mannose-6P, Mean (KO (lipin-1mKO) BMDMs): 0.01255
- NAD+, Mean (KO (lipin-1mKO) BMDMs): 0.3551
- NADH, Mean (KO (lipin-1mKO) BMDMs): 0.3515
- NADP+, Mean (KO (lipin-1mKO) BMDMs): 0.1139
- NADPH, Mean (KO (lipin-1mKO) BMDMs): 0.1752
- PEP, Mean (KO (lipin-1mKO) BMDMs): 0.04492
- Phosphocreatine, Mean (KO (lipin-1mKO) BMDMs): 0.2338
- Pyruvate, Mean (KO (lipin-1mKO) BMDMs): 35.61
- Ribose-1,5bisP, Mean (KO (lipin-1mKO) BMDMs): 0.00195
- Ribose-5P, Mean (KO (lipin-1mKO) BMDMs): 0.07803
- Ribulose-1,5bisP, Mean (KO (lipin-1mKO) BMDMs): 0.02412
- Ribulose-5P, Mean (KO (lipin-1mKO) BMDMs): 0.1828
- Sedoheptulose-7P, Mean (KO (lipin-1mKO) BMDMs): 0.05303
- Succinate, Mean (KO (lipin-1mKO) BMDMs): 36.15
- Succinyl-CoA, Mean (KO (lipin-1mKO) BMDMs): 0.0234
- UDP, Mean (KO (lipin-1mKO) BMDMs): 0.1803
- UDP-Glucose, Mean (KO (lipin-1mKO) BMDMs): 0.5266
- UDP-acetylglucosamine, Mean (KO (lipin-1mKO) BMDMs): 0.9395
- UMP, Mean (KO (lipin-1mKO) BMDMs): 16.84
- UTP, Mean (KO (lipin-1mKO) BMDMs): 4.409
- cyclic-ADPR, Mean (KO (lipin-1mKO) BMDMs): 0.3267
- cyclic-AMP, Mean (KO (lipin-1mKO) BMDMs): 0.0031
- cyclic-UMP, Mean (KO (lipin-1mKO) BMDMs): 0.00447
- α-Ketoglutarate, Mean (KO (lipin-1mKO) BMDMs): 3.985
- 6P-Gluconate, Mean (WT BMDMs): 0.01622
- ADP, Mean (WT BMDMs): 0.8758
- ADP-Glucose, Mean (WT BMDMs): 0.00298
- AMP, Mean (WT BMDMs): 2.316
- ATP, Mean (WT BMDMs): 0.2736
- Acetyl-CoA, Mean (WT BMDMs): 0.00738
- Acetyl-Phosphate, Mean (WT BMDMs): 0.496
- Acetylglucosamine-1P, Mean (WT BMDMs): 0.1361
- Acetylglucosamine-6P, Mean (WT BMDMs): 0.5132
- Citrate, Mean (WT BMDMs): 15.89
- DHAP, Mean (WT BMDMs): 0.05342
- Erythrose-4P, Mean (WT BMDMs): 0.05778
- Fructose-1,6-bisP, Mean (WT BMDMs): 0.0196
- Fructose-1P, Mean (WT BMDMs): 0.00392
- Fructose-6P, Mean (WT BMDMs): 0.06408
- Fumarate, Mean (WT BMDMs): 19.48
- GDP, Mean (WT BMDMs): 0.1479
- GMP, Mean (WT BMDMs): 15.29
- GTP, Mean (WT BMDMs): 0.04348
- Glucosamine-6P, Mean (WT BMDMs): 0.04035
- Glucose, Mean (WT BMDMs): 53.46
- Glucose-1,6-bisP, Mean (WT BMDMs): 0.04287
- Glucose-1P, Mean (WT BMDMs): 0.03848
- Glucose-6P, Mean (WT BMDMs): 0.1044
- Glyceraldehyde-3P, Mean (WT BMDMs): 0.1365
- Glycerate-2,3P, Mean (WT BMDMs): 0.00063
- Glycerate-2P, Mean (WT BMDMs): 0.00803
- Glycerate-3P, Mean (WT BMDMs): 0.0653
- Glycerol-3P, Mean (WT BMDMs): 0.982
- Glycolate, Mean (WT BMDMs): 19.94
- Hs-CoA, Mean (WT BMDMs): 0.0517
- Isocitrate, Mean (WT BMDMs): 0.1146
- Latate, Mean (WT BMDMs): 2685
- Malate, Mean (WT BMDMs): 87.07
- Mannose-6P, Mean (WT BMDMs): 0.01458
- NAD+, Mean (WT BMDMs): 0.3884
- NADH, Mean (WT BMDMs): 0.5159
- NADP+, Mean (WT BMDMs): 0.1431
- NADPH, Mean (WT BMDMs): 0.1122
- PEP, Mean (WT BMDMs): 0.03792
- Phosphocreatine, Mean (WT BMDMs): 0.2747
- Pyruvate, Mean (WT BMDMs): 37.78
- Ribose-1,5bisP, Mean (WT BMDMs): 0.00238
- Ribose-5P, Mean (WT BMDMs): 0.08472
- Ribulose-1,5bisP, Mean (WT BMDMs): 0.02488
- Ribulose-5P, Mean (WT BMDMs): 0.2631
- Sedoheptulose-7P, Mean (WT BMDMs): 0.04902
- Succinate, Mean (WT BMDMs): 52.07
- Succinyl-CoA, Mean (WT BMDMs): 0.02933
- UDP, Mean (WT BMDMs): 0.2351
- UDP-Glucose, Mean (WT BMDMs): 0.5467
- UDP-acetylglucosamine, Mean (WT BMDMs): 1.096
- UMP, Mean (WT BMDMs): 18
- UTP, Mean (WT BMDMs): 5.48
- cyclic-ADPR, Mean (WT BMDMs): 0.3519
- cyclic-AMP, Mean (WT BMDMs): 0.00362
- cyclic-UMP, Mean (WT BMDMs): 0.00372
- glycolytic and TCA cycle metabolites on IL-4 stimulation (WT BMDMs): significant increase
- α-Ketoglutarate, Mean (WT BMDMs): 3.785
- TCA metabolite succinate on IL-4 stimulation (lipin-1 KO macrophages): decrease
- isocitrate on IL-4 stimulation (lipin-1 KO macrophages): significant increase
